Experimental data taken from paper PMC4955205, “EctD-mediated biotransformation of the chemical chaperone ectoine into hydroxyectoine and its mechanosensitive channel-independent excretion” (Microbial Cell Factories, 2016).

How the values were obtained:
Type in all cases: cell-based
EctD (H. elongata) = molecular target: T1, EctD (H. elongata) (Halomonas elongata, UniProt E1VA04); experiment: whole-cell biotransformation in E. coli FF4169, HPLC; conditions: 10 mM ectoine in medium, MMA with 0.4 M NaCl, 37 °C, 24 h; Fe(II) and 2-oxoglutarate of the cell
T1 construct: full length, Strep-tag II, plasmid pMP32, expressed in E. coli FF4169
T1 sequence (E1VA04 1-332): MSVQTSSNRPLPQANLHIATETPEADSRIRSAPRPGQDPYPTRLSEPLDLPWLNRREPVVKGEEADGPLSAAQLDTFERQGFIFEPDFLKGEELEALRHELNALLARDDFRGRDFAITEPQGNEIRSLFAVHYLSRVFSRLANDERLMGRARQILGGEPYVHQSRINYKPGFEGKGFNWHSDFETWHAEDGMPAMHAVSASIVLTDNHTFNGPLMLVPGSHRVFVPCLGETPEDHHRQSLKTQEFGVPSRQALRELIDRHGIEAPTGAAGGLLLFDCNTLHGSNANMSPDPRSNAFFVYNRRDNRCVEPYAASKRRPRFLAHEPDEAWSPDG

EctD (N. maritimus) = molecular target: T2, EctD (N. maritimus) (Nitrosopumilus maritimus, UniProt A9A2K0); experiment: as above; conditions: 10 mM ectoine in medium, MMA with 0.4 M NaCl, 37 °C, 24 h; Fe(II) and 2-oxoglutarate of the cell
T2 construct: gene Nmar_1343; full length, Strep-tag II, codon-optimized gene, plasmid pMP45, expressed in E. coli FF4169
T2 sequence (A9A2K0 1-304): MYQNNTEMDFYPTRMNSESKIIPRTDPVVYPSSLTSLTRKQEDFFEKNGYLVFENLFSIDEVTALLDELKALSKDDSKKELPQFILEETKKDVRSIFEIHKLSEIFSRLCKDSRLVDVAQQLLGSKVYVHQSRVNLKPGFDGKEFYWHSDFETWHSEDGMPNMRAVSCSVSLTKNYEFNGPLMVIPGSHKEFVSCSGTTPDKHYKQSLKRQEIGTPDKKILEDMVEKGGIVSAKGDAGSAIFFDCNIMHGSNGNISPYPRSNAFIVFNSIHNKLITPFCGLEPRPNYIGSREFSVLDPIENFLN

EctD (S. alaskensis) = molecular target: T3, EctD (S. alaskensis) (Sphingopyxis alaskensis, UniProt Q1GNW5); experiment: as above; conditions: 10 mM ectoine in medium, MMA with 0.4 M NaCl, 37 °C, 24 h; Fe(II) and 2-oxoglutarate of the cell
T3 construct: full length, Strep-tag II, plasmid pMP40, expressed in E. coli FF4169; homodimer
T3 sequence (Q1GNW5 1-306): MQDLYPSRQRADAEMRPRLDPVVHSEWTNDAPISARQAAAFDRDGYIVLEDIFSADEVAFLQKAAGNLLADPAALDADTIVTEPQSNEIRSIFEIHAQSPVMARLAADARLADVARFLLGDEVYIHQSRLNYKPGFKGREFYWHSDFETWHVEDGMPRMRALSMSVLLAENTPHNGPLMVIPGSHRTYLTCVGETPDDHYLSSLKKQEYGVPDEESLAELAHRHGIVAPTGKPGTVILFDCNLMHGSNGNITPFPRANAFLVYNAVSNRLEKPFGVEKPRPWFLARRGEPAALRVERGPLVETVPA

EctD (A. ehrlichii) = molecular target: T4, EctD (A. ehrlichii) (Alkalilimnicola ehrlichii, UniProt A0A3E0X329); experiment: as above; conditions: 10 mM ectoine in medium, MMA with 0.4 M NaCl, 37 °C, 24 h; Fe(II) and 2-oxoglutarate of the cell
T4 construct: gene CAL65_03675; full length, Strep-tag II, codon-optimized gene, plasmid pMP44, expressed in E. coli FF4169
T4 sequence (A0A3E0X329 1-303): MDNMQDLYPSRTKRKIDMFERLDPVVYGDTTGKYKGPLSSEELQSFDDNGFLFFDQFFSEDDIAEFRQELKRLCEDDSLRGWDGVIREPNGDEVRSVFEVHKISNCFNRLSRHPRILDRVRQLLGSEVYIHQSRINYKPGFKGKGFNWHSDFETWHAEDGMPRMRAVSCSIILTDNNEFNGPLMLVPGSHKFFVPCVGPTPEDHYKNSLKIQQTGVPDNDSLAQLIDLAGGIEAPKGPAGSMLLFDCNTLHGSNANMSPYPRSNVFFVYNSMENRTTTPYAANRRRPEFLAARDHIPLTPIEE

[1] = molecular target: T5, EctD (P. stutzeri A1501), ectoine hydroxylase (Stutzerimonas stutzeri, UniProt A4VFY4); experiment: as above; conditions: 10 mM ectoine in medium, MMA with 0.4 M NaCl, 37 °C, 24 h; Fe(II) and 2-oxoglutarate of the cell
T5 construct: homodimer
T5 sequence (A4VFY4 1-302): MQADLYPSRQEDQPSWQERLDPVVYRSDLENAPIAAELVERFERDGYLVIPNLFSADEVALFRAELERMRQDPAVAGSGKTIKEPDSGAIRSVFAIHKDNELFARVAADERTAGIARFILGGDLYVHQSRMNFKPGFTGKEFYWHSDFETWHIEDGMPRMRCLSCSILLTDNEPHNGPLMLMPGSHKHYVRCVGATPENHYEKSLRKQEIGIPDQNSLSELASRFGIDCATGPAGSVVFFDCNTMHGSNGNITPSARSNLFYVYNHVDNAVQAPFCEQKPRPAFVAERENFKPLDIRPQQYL

EctD (P. lautus) = molecular target: T6, EctD (P. lautus) (Paenibacillus lautus, UniProt A0A385TC02); experiment: as above; conditions: 10 mM ectoine in medium, MMA with 0.4 M NaCl, 37 °C, 24 h; Fe(II) and 2-oxoglutarate of the cell
T6 construct: gene thpD; full length, Strep-tag II, codon-optimized gene, plasmid pMP43, expressed in E. coli FF4169
T6 sequence (A0A385TC02 1-302): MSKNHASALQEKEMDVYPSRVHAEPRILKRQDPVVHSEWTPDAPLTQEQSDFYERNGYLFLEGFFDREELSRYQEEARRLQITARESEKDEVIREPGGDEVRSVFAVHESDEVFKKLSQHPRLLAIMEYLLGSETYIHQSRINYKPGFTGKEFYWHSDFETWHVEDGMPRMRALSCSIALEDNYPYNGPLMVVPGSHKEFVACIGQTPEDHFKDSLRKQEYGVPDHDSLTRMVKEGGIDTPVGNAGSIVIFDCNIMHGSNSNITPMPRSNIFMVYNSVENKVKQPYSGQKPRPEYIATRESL

ProU ABC transporter = molecular target: T7, ProU ABC transporter (Escherichia coli, UniProt P0AFM2); experiment: inhibition of [[…]-14C]glycine betaine uptake, whole cells of ProP- ProU+ strain; conditions: 100 µM [1-14C]glycine betaine, MMA with 0.4 M NaCl, 37 °C, 5 min
T7 construct: gene proX; native chromosomal transporter in whole cells of a proP deletion strain; with Glycine betaine/proline betaine transport system permease protein ProW
T7 sequence (P14176 whole entry): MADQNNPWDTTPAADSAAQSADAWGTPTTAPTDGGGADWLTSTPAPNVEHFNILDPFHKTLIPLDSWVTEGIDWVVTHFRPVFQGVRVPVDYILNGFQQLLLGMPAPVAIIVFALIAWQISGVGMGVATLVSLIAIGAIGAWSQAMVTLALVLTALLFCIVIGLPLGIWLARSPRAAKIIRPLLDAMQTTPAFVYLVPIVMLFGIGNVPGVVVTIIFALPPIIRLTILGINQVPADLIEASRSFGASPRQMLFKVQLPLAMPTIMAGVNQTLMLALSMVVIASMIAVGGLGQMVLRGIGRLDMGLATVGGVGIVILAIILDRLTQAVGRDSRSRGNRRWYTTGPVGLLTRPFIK
T7 sequence (P0AFM2 22-330): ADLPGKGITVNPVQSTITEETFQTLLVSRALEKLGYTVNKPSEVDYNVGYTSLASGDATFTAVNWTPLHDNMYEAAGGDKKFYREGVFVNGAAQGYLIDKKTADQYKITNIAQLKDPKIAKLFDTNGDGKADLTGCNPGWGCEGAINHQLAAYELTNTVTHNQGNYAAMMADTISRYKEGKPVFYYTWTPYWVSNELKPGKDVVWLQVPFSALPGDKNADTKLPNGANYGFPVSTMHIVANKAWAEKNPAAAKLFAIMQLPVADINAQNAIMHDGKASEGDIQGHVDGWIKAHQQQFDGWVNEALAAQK
T7 sequence (P14175 whole entry, further chain): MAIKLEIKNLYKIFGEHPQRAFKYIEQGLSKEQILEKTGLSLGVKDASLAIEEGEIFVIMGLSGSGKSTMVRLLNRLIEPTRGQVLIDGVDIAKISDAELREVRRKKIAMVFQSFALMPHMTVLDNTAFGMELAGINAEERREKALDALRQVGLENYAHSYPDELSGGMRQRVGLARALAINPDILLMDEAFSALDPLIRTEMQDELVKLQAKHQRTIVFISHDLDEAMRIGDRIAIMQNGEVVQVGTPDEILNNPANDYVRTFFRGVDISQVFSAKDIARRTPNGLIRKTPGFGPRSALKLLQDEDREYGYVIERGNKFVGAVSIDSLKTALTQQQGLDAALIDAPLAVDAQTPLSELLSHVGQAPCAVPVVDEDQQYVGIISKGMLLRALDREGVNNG

ProP = molecular target: T8, ProP (Escherichia coli, UniProt P0C0L7); experiment: inhibition of [[…]-14C]glycine betaine uptake, whole cells of ProP+ ProU- strain; conditions: 100 µM [1-14C]glycine betaine, MMA with 0.4 M NaCl, 37 °C, 5 min; unlabelled glycine betaine 1 mM; labelled compound
T8 construct: native chromosomal transporter in whole cells of a proU deletion strain
T8 sequence (P0C0L7 whole entry): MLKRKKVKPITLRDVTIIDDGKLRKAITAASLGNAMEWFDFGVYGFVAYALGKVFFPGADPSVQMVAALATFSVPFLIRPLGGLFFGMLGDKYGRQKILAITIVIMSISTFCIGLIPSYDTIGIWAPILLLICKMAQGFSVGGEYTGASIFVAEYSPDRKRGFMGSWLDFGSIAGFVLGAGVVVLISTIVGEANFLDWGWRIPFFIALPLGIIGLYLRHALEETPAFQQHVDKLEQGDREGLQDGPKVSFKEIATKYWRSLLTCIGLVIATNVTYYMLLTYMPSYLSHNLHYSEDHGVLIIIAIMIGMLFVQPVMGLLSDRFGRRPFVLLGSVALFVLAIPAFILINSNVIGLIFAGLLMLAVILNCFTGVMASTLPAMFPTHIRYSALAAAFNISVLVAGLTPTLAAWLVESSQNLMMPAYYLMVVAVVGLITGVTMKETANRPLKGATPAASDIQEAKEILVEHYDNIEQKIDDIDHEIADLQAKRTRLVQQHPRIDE

## CC1=NCC[C@@H](C(=O)O)N1 [ectoine, (S)-2-methyl-1,4,5,6-tetrahydropyrimidine-4-carboxylic acid]
EctD (H. elongata)
  whole-cell biotransformation in E. coli FF4169, HPLC: a mixture of the added ectoine and the newly produced 5-hydroxyectoine were observed
EctD (N. maritimus)
  whole-cell biotransformation in E. coli FF4169, HPLC: almost all of the provided ectoine had been converted into 5-hydroxyectoine
EctD (S. alaskensis)
  whole-cell biotransformation in E. coli FF4169, HPLC: a mixture of the added ectoine and the newly produced 5-hydroxyectoine were observed
EctD (A. ehrlichii)
  whole-cell biotransformation in E. coli FF4169, HPLC: a mixture of the added ectoine and the newly produced 5-hydroxyectoine were observed
[1]
  whole-cell biotransformation in E. coli FF4169, HPLC: almost all of the provided ectoine had been converted into 5-hydroxyectoine
EctD (P. lautus)
  whole-cell biotransformation in E. coli FF4169, HPLC: a mixture of the added ectoine and the newly produced 5-hydroxyectoine were observed
ProU ABC transporter; competitor 1000-fold excess (100 mM)
  % inhibition at 1000-fold excess: 45%

## C[N+](C)(C)CC(=O)[O-] [glycine betaine]
ProP
  % inhibition at tenfold excess: ~ 85%
ProU ABC transporter; unlabelled glycine betaine 1 mM, labelled compound
  % inhibition at tenfold excess: ~ 85%
